Test results: paper PMC9127750, “Structure-based design of CDC42 effector interaction inhibitors for the treatment of cancer” (Cell reports, 2022)
“And” between values parts separate entries of the source, which are not always exact repeats. Identical values can stand only once.

System: WM3248 melanoma cells, 486 antibodies
Test: Reverse phase protein arrays (RPPA)
Format: cell-based, Human
Settings: 10 uM
From the text: Pellets were snap frozen in liquid nitrogen and shipped to MD Anderson Cancer Center core RPPA facility for RPPA analysis (Table S5). Three biological replicates for each sample were generated.
Nomenclatures on the RPPA heatmaps: name_of_antibody.species_of_antibody.status_of_antibody. V - antibody validated; C - validation of antibody in progress; Q - antibody nonspecific; E – under evaluation; antibodies raised in M - mouse, G - goat, R - rabbit, or T - rat.

CN(C)c1cccc(Nc2cc(-c3ccccc3)nc(C3CCNCC3)n2)c1 [ARN22089, N1,N1-dimethyl-N3-(6-phenyl-2-(piperidin-4-yl)pyrimidin-4-yl)benzene-1,3-diamine]
RPPA level MMP14.R.V (single replicates): 0.939 and 1.138
RPPA level MR1.M.C (single replicates): 1.059 and 1.005 and 1.063
RPPA level MRAP.R.C (single replicates): 1.023 and 1.051
RPPA level MSH2.R.C (single replicates): 0.977 and 1.024
RPPA level MSH6.R.C (single replicates): 0.940 and 0.976
RPPA level MSI2.R.C (single replicates): 1.020 and 0.933
RPPA level MTCO1.M.V (single replicates): 1.128 and 0.684
RPPA level MTSS1.M.C (single replicates): 1.023 and 1.031
RPPA level Mcl.1.R.V (single replicates): 0.823 and 0.973 and 0.929
RPPA level MelanA.R.C (single replicates): 0.752 and 0.988 and 1.034
RPPA level Melanoma.gp100.R.C (single replicates): 0.837 and 0.959 and 1.052
RPPA level Merlin.R.C (single replicates): 1.020 and 0.924
RPPA level Midkine.R.V (single replicates): 1.032 and 0.966 and 1.004
RPPA level Mitofusin.1.R.V (single replicates): 0.925 and 1.003 and 1.050
RPPA level Mitofusin.2.R.V (single replicates): 0.797 and 0.934 and 1.103
RPPA level Mnk1.R.V (single replicates): 0.917 and 0.929 and 1.022
RPPA level mTOR.R.V (single replicates): 1.016 and 0.918 and 0.854
RPPA level mTOR_pS2448.R.C (single replicates): 1.016 and 0.946 and 0.924
RPPA p21.R.C (single replicates): 1.203 and 0.773 and 1.055
RPPA p27.Kip1.R.C (single replicates): 1.051 and 0.999
RPPA p27_pT157.R.C (single replicates): 1.124 and 1.006
RPPA p27_pT198.R.V (single replicates): 0.989 and 1.466 and 1.049
RPPA p38.MAPK.R.V (single replicates): 0.899 and 0.964 and 1.062
RPPA p38.MAPK._pT180_Y182.R.V (single replicates): 0.872 and 0.913 and 0.950
RPPA p38.a.M.V (single replicates): 0.966 and 1.049
RPPA p44.42.MAPK.R.V (single replicates): 0.852 and 0.899
RPPA p53.R.C (single replicates): 0.871 and 0.886 and 0.966
RPPA p70.S6K1.R.V (single replicates): 1.046 and 0.827 and 0.882
RPPA p70.S6K_pT389.R.V (single replicates): 1.331 and 0.838 and 0.820
RPPA p90RSK_pT573.R.C (single replicates): 1.224 and 0.922 and 1.014
RPPA DNMT1.R.V (single samples): 1.052 and 0.962 and 1.050
RPPA DRP1.R.V (single samples): 1.012 and 0.957 and 0.978
RPPA DUSP4.R.V (single samples): 0.821 and 0.862 and 1.012
RPPA DUSP6.R.C (single samples): 1.063 and 0.981 and 0.768
RPPA DYRK1B.R.C (single samples): 1.057
RPPA Dvl3.R.V (single samples): 0.885 and 1.058 and 1.012
RPPA E2F1.R.V (single samples): 1.030 and 1.011
RPPA E.Cadherin.R.V (single samples): 0.941 and 1.144 and 1.080
RPPA EGFR.R.V (single samples): 0.824 and 0.981 and 0.985
RPPA EGFR_pY1068.R.C (single samples): 0.993 and 0.982
RPPA EGFR_pY1173.R.V (single samples): 0.968 and 1.017 and 0.987
RPPA EMA.M.C (single samples): 1.080 and 1.274
RPPA ENY2.M.C (single samples): 0.960 and 1.056
RPPA ER.a.R.V (single samples): 0.808 and 0.999 and 1.013
RPPA ER.a_pS118.R.V (single samples): 1.079 and 0.918 and 0.929
RPPA ERCC1.R.C (single samples): 1.102 and 1.123 and 0.975
RPPA ERCC5.R.C (single samples): 0.931 and 0.897 and 0.810
RPPA ERRalpha.R.V (single samples): 1.149 and 0.962
RPPA EVI1.R.V (single samples): 1.129 and 1.023
RPPA Elk1_pS383.R.C (single samples): 0.944 and 1.020 and 1.011
RPPA Enolase.1.R.V (single samples): 0.956 and 0.946
RPPA Enolase.2.R.V (single samples): 1.058 and 1.146 and 1.060
RPPA EphA2.R.V (single samples): 0.798 and 1.104 and 1.103
RPPA EphA2_pY588.R.C (single samples): 0.976 and 0.887
RPPA Erk5.R.V (single samples): 0.766 and 0.899 and 1.062
RPPA Ets.1.R.V (single samples): 1.143 and 1.054 and 1.017
RPPA FABP5.R.C (single samples): 0.909 and 1.032 and 1.076
RPPA FAK.R.C (single samples): 0.856 and 0.998
RPPA FAK_pY397.R.V (single samples): 1.077 and 0.996
RPPA FANCD2.R.V (single samples): 1.119 and 0.953 and 0.957
RPPA FASN.R.V (single samples): 1.052 and 0.855 and 0.656
RPPA FGF.basic.R.C (single samples): 0.867 and 1.005 and 0.952
RPPA FN14.R.C (single samples): 0.860 and 1.189 and 1.048
RPPA FOXM1.R.V (single samples): 1.131 and 0.950 and 0.985
RPPA FOXO3.R.V (single samples): 0.873 and 1.121 and 1.097
RPPA FRS2.alpha_pY196.R.V (single samples): 1.003 and 1.811
RPPA FTO.R.V (single samples): 1.061 and 0.989 and 0.960
RPPA Fibronectin.R.V (single samples): 0.546 and 0.983 and 0.999
RPPA FoxO3a_pS318_S321.R.C (single samples): 1.060 and 0.984
RPPA G6PD.R.V (single samples): 1.051 and 1.085 and 1.058
RPPA GATA3.M.V (single samples): 1.245 and 0.906 and 0.898
RPPA GATA6.R.V (single samples): 1.116 and 0.978
RPPA GCLC.R.C (single samples): 0.924 and 1.030
RPPA GCLM.R.V (single samples): 1.052 and 1.025 and 1.000
RPPA GCN5L2.R.V (single samples): 0.890 and 0.985
RPPA GGPS1.M.V (single samples): 0.998 and 0.974 and 1.046
RPPA GRB2.R.V (single samples): 0.833 and 0.898 and 0.998
RPPA GRB7.R.V (single samples): 0.772 and 1.100
RPPA GSK.3B.R.C (single samples): 0.886 and 0.913 and 0.953
RPPA GSK.3a.b.M.V (single samples): 1.163 and 1.006 and 1.033
RPPA GSK.3a.b_pS21_S9.R.V (single samples): 1.290 and 0.899 and 0.932
